This note sets out measurements from US9487489B2, “Halogen-substituted pyrazole derivatives as pest-control agents” (BAYER CROPSCIENCE AKTIENGESELLSCHAFT, priority 2013, dated 2016).

Data set [1] deals with green peach aphid (Myzus persicae). Briefly: Myzus persicae spray test (MYZUPE). Type of data set: in vivo. The note with it: application rate 500 g/ha; Chinese cabbage leaf discs; after 6 days. In outline:
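Chinese cabbage leaf discs infested with all aphid stages sprayed with compound in acetone/DMF with alkylaryl polyglycol ether emulsifier in water. Efficacy (% aphids killed; 100% all dead, 0% none) scored after 6 days.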

The subject of data set [2] is adult houseflies (Musca domestica). Briefly: Musca domestica test (MUSCDO). The conditions noted are these: application rate 100 ppm; after 2 days. The class given is in vivo. In outline:
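Compound dissolved in DMSO and diluted with water to the test concentration, applied with sugar solution on a sponge; 10 adult houseflies per vessel. Mortality scored after 2 days as % kill (100% all dead, 0% none).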

In data set [3] the test system is bont tick nymphs (Amblyomma hebraeum). The note with it: after 48 h.
Data set [4] deals with larvae of the mustard beetle (Phaedon cochleariae). Briefly: Phaedon cochleariae spray test (PHAECO). The class given is in vivo. The note with it: Chinese cabbage leaf discs, after 7 days. In outline:
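Compound dissolved in acetone/dimethylformamide with alkylaryl polyglycol ether emulsifier, made up in water containing 1000 ppm emulsifier, then diluted to test concentrations and sprayed against mustard beetle larvae. Efficacy (% larvae killed) scored after 7 days.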

The subject of data set [5] is adult cat fleas (Ctenocephalides felis). Briefly: Ctenocephalides felis oral test (CTECFE). Type of data set: in vivo. The conditions noted are these: application rate 100 ppm in citrated cattle blood; after 2 days. In outline: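 About 20 unfed adult cat fleas fed through parafilm membrane on citrated cattle blood containing compound (DMSO stock diluted in blood to test concentration). Kill % scored after 2 days (100% = all fleas dead).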

In data set [6] the test system is cattle ticks (Boophilus microplus) Parkhurst strain, SP-resistant. Briefly: Boophilus microplus dip test (BOOPMI Dip). Type of data set: in vivo. The note with it: application rate 100 ppm, assessed after 7 days. The method in brief: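 Adult engorged female SP-resistant Parkhurst ticks (8–10) were fully immersed in compound diluted in water from a DMSO solution, then kept in a climate-controlled room. After 7 days, fertile egg-laying was scored, with larval hatching checked at about 42 days; 100% efficacy means no fertile eggs.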

Data set [7] deals with larvae of the red stomach worm (Haemonchus contortus). Briefly: Haemonchus contortus test (HAEMCO). The class given is in vivo. The conditions noted are these: application rate 20 ppm; after 5 days. The protocol: T8. Haemonchus contortus-test (HAEMCO)
Solvent: dimethyl sulphoxide
To produce a suitable preparation of active compound, 10 mg of active compound are mixed with 0.5 ml of dimethyl sulphoxide, and the concentrate is diluted with “Ringer solution” to the desired concentration.
Vessels containing the active compound preparation of the desired concentration are populated with about 40 larvae of the red stomach worm (Haemonchus contortus).
After 5 days, the kill in % is determined 100% means that all of the larvae have been killed; 0% means that none of the larvae have been killed.

In data set [8] the test system is southern root-knot nematode (Meloidogyne incognita). Briefly: Meloidogyne incognita test (MELGIN). Type of data set: in vivo. The note with it: application rate 20 ppm; lettuce; after 14 days. The protocol: K. Meloidogyne incognita Test (MELGIN)
Solvent: 125.0 parts by weight of acetone
To prepare a suitable active compound preparation, 1 part by weight of active compound is mixed with the stated amount of solvent and the concentrate is diluted with water to the desired concentration.
Vessels are filled with sand, active compound solution, an egg/larvae suspension of the southern root-knot nematode (Meloidogyne incognita) and lettuce seeds. The lettuce seeds germinate and the plants develop. On the roots, galls are formed.
After 14 days, the nematicidal efficacy in % is determined by the formation of galls. 100% means that no galls have been found; 0% means that the number of galls on the treated plants corresponds to the untreated control.

In data set [9] the test system is caterpillars of the armyworm (Spodoptera frugiperda). Briefly: Spodoptera frugiperda spray test (SPODFR). The class given is in vivo. The note with it: maize leaf discs, after 7 days. In outline:
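Maize leaf discs sprayed with compound in acetone/DMF with alkylaryl polyglycol ether emulsifier (1000 ppm) in water, dried, then infested with armyworm caterpillars. Mortality (%) scored after 7 days; 100% = all caterpillars killed, 0% = none killed.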

A short description of data set [10]: logP determination by HPLC on a reversed-phase column (C18), EEC Directive 79/831 Annex V.A8. Type of data set: physicochemical. The method in brief: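 Retention on a C18 reversed-phase column (Zorbax Eclipse Plus, 1.8 micron) was used, eluting with acetonitrile/water, each containing formic acid. The gradient ran from 10% to 95% acetonitrile over 4.25 min, then held 1.25 min, at 55° C and 2.0 ml/min, with MS detection.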

In the case of `Cn1nc(C(F)(F)C(F)(F)F)c(C(F)(F)F)c1-n1cc(-c2ccc(Cl)c(C(=O)NC3CC3)c2)cn1` [Ic-1, 2-Chloro-N-cyclopropyl-5-[2′-methyl-5′-(pentafluoroethyl)-4′-(trifluoromethyl)-2′H-1,3′-bipyrazol-4-yl]benzamide], the values for the efficacy in % in data set [1], in data set [4] (application rate 500 g/ha) and in [9] (application rate 500 g/ha) were 90%, 100% and 100%, respectively. The “efficacy (kill in %)” value worked out at 100% in data set [2], 100% in [5] and 80% in data set [7]. In addition, the “efficacy (dead or moribund ticks)” value in data set [3] is 100%. For the same compound, the “efficacy (laying of fertile eggs)” value in data set [6] is 100%. The “nematicidal efficacy in % (formation of galls)” value in data set [8] amounted to 90%. Also, the chromatographic logP in data set [10] turned out to be 3.79.

As to `CCn1nc(C(F)(F)C(F)(F)F)c(C(F)(F)F)c1-n1cc(-c2ccc(Cl)c(C(=O)NC3CC3)c2)cn1` [Ic-16], the “efficacy (kill in %)” value came to 100% in [2], 100% in [5] and 80% in [7]. The “efficacy (dead or moribund ticks)” value in data set [3] came to 100%. Further, the efficacy in % in [4] (application rate 100 g/ha) and in data set [9] (application rate 100 g/ha) was 100% in each case. The “efficacy (laying of fertile eggs)” value in data set [6] is 100%. The compound also came in with a lipophilicity (logP) in data set [10] (HPLC on reversed-phase column (C18), acetonitrile/water with formic acid, EEC Directive 79/831 Annex V.A8) of 4.14.

The term chromatographic logP denotes lipophilicity estimated from chromatographic retention. High values mean higher lipophilicity, low ones lower lipophilicity. For orientation: logP means a log measure of how a compound divides between an organic and an aqueous phase. Read a high logP as a more lipophilic compound.
